The subject of data set [1] is alpha-1-acid glycoprotein (AAG). The experiment in a line: SPR-based biosensor. Type of data set: binding. The settings on record: human.
The conditions of data set [2]: across animal species; cited from earlier work.
Data set [3] in a line: In vitro solubility. Type of data set: physicochemical.
Data set [4] relates to human hepatocytes. The settings on record: in vitro; cited from earlier work.
Data set [5] is described as follows: clinical. The settings on record: human, plasma, po.
Data set [6] concerns the target AAG. The settings on record: cited from earlier work.

Values after ≈ are worked out from the molar mass of the structure shown.

By Kd is commonly meant a measure of binding affinity in units of concentration. A high value points to weaker binding. As a reminder, the solubility is the dissolved amount per volume that the medium holds. A higher solubility goes with much dissolved substance. As a reminder, the half-life is the time in which the quantity being followed falls by half. A high value points to slow loss. As usually defined, the AUC(0-t) is exposure summed from dosing to a finite time, without extrapolation to infinity. By Cmax is commonly meant the maximum level reached in the sampled fluid or tissue.

Take `CS(=O)(=O)c1ccc(C(=O)Nc2ccc(Cl)c(-c3ccccn3)c2)c(Cl)c1` [GDC-0449, 2-chloro-N-[4-chloro-3-(pyridin-2-yl)phenyl]-4-[methylsulfonyl]benzamide]: in data set [1], the Kd was determined as 13 µM. Further, the Oral bioavailability result in data set [2] is reported as “good”. Also, the solubility in data set [3] (pH 0.1) worked out at 990 µg/mL (≈ 2350 µM); in data set [3] (pH 6.5), 0.1 µg/mL (≈ 0.237 µM). Besides, the “Compound remaining intact following coincubations with human hepatocytes” value in data set [4] is around 100%. Also, the half-life in data set [5] is above 168 h. Also, the figures for the AUC(0-t) in data set [5] (150 mg), in data set [5] (270 mg) and in data set [5] (540 mg) were 322 ± 185 µM·h, 839 ± 458 µM·h and 1010 µM·h, respectively. In addition, the Cmax was 3.58 ± 1.34 µM in data set [5] (150 mg), 6.34 ± 3.4 µM in data set [5] (270 mg) and 6.81 ± 2.69 µM in data set [5] (540 mg).
For the molecule `CN[C@@H]1C[C@H]2O[C@@](C)([C@@H]1OC)n1c3ccccc3c3c4c(c5c6ccccc6n2c5c31)C(=O)N[C@H]4O` [UCN-01], the “KD for AAG (corresponding to reported KA)” value in data set [6] is 0.00125 µM.
